Here are results for four compounds from patent US11826467B2, “W/O/W microemulsions for ocular administration” (University of Tennessee Research Foundation, priority 2017, dated 2023).

Data set [1] deals with IOP. As to the kind of experiment: Efficacy of other gabapentinoid drugs (IOP, viscous eye drops). Type of data set: in vivo. To be noted: 0.9% drug in 2% HPMC viscous eye drops, C57Bl/6 J mice. The text has this:
To determine if other members of the gabapentinoid drug family are also efficacious in reducing IOP, we compared the efficacy of 0.9% pregabalin, 0.9% 2-phenylglycine and 0.9% gabapentin in 2% HPMC viscous eye drops in C57Bl/6 J mice.
2-phenylglycine (FIG. 28) and gabapentin (FIG. 29) were not as efficacious as pregabalin although they both had maximum IOP reductions of −8% and areas under the curve of −14% hr.

For data set [2], the system named is IOP. The data set can be described thus: IOP lowering by pregabalin HPMC eye drops in mice (dose response). Type of data set: in vivo, B6 mice. The text has this: 0.9% is the minimum concentration that gives maximum effect (n=5).
(§1) It is also modestly present in the CM. Based upon these collective data, it appears that CACNA2D1 regulates IOP (FIG. 3). Pregabalin, or other gabapentinoid drugs, binds to the CACNA2D1 subunit of the calcium channel. The binding of the drug mitigates the flux of calcium through the α1 pore of the calcium channel, reducing the level of intracellular calcium. Since Cacna2d1 modulates IOP, pregabalin, a gabapentinoid drug with high specificity for CACNA2D1, was evaluated for its ability to affect IOP. […] The 1.2% pregabalin eye drops extended the duration of the IOP-lowering effect of pregabalin above that obtained with 0.6% pregabalin. Because there was no significant difference in the percent reduction of IOP between 0.9 and 1.2% pregabalin, we selected 0.9% as the minimal concentration required to produce the maximum reduction in IOP. Expanding this analysis to an additional species, we observed a similar IOP-lowering response (22.1±2.8%) in Dutch belted rabbits after instillation of 0.9% pregabalin eye drops (FIG. 5).

The subject of data set [3] is IOP. As to the kind of experiment: IOP lowering by pregabalin HPMC eye drops in rabbits. In kind it is in vivo. The note with it: 0.9% pregabalin in HPMC eye drops, Dutch belted rabbits.
Source text: FIG. 5: Pregabalin (0.9%) suspended in hydroxypropyl methylcellulose (HPMC) lowers IOP by 23% in Dutch belted rabbits (n=5).
as §1

The conditions of data set [4]: cited from earlier work.

For the compound `NC(C(=O)O)c1ccccc1` (stereo not shown) [2-phenylglycine], in the data set on IOP [1], the “area under the curve” value is given as −14 % hr and the “maximum IOP reduction” value was −8%.
`CC(C)C[C@H](CN)CC(=O)O` [Pregabalin, pregabalin]: in the data set with IOP [2] (drops containing 0.3% pregabalin suspended in HPMC, topical, B6 mice), the “IOP-lowering effect compared to control” value is recorded as “no IOP-lowering effect”. For the same compound, the “IOP reduction, dose dependence” value in the data set on IOP [2] (pregabalin 0.3-1.2% suspended in HPMC, eye drops, mice) is on record as “dose-dependent manner”. Moreover, the “minimal concentration required to produce the maximum reduction in IOP” value with IOP [2] (pregabalin in HPMC eye drops, B6 mice, plateau, no significant difference 0.9 vs 1.2%) stood at 0.9%. Moreover, in the data set on IOP [1], the “area under the curve” value is 65 % hr, the “maximum IOP reduction” value is recorded as 17.3% and the “time at which IOP returned to baseline” value was not above 6 h. Besides, the “IOP-lowering response (IOP reduction)” value with IOP [3] was 23%. Moreover, the “IOP-lowering response (IOP reduction)” value in the data set on IOP [3] (listed as pregabalin) is recorded as 22.1±2.8%.
As for `NC(=O)c1ncn([C@@H]2O[C@H](CO)[C@@H](O)[C@H]2O)n1` [Ribavirin, 113-D-ribofuranosyl-1H-1,2,4-triazole-3-carboxamide], the solubility in water entry in data set [4] was “freely soluble in water”.
Turning to `NCC1(CC(=O)O)CCCCC1` [gabapentin], in the data set with IOP [1], the “area under the curve” value is given as −14 % hr and the “maximum IOP reduction” value is given as −8%.
